Assay results reported in patent publication US10653672B2, “Myogenesis promotor, muscle atrophy inhibitor, medical composition and TAZ activator” (National University Corporation Tokyo Medical and Dental …, priority 2014, dated 2020).
Several values for one entry are separate records, joined by “and”; a condition that tells them apart may be missing. Equal entries are not always repeated.

What was measured:
C2C12 cells = assay: Antagonistic action on myostatin in C2C12 cells; type: cell-based, mouse; conditions: differentiation condition 72 hours
Text: Myostatin is a protein and a member of a transforming growth factor […] superfamily, and inhibits muscle growth and differentiation. Myostatin binds activin type IIB receptor and triggers SMAD2/3-dependent signaling. Since TAZ interacts with SMAD2/3, effects of IBS008738 on the signaling of myostatin was examined (FIGS. 8A to 8C). The line in the figures is 100 μm. The line and the error bar indicate the average value and the standard error, *p<0.05, […], ***p<0.001, ns refers to not significant.
(1) C2C12 cells in which TAZ was knocked down (si TAZ) and C2C12 cells in which TAZ was not knocked down (si Cont) were grown to confluence, respectively, A stock solution of 100 μg/mL myostatin in 4 mM […] with 0.1% (w/v) BSA and a stock solution of 10 mM IBS008738 in DMSO were prepared. The cells were cultured at differentiation condition for 72 hours in a 1 mL medium with 1 μL DMSO, a 1 mL medium with 1 μL myostatin stock solution, and a 1 mL medium with 1 μL IBS008738 stock solution. As a result, muscle formation of the C2C12 cells was inhibited in the case with only myostatin, but muscle formation of the C2C12 cells was recovered in the case with myostatin and IBS008738.
(2) The fusion index of C2C12 cells in which TAZ was knocked down (si TAZ) and C2C12 cells in which TAZ was not knocked down (si Cont), after being cultured under differentiation condition for 72 hours, was analyzed.
Expression of MHC of C2C12 cells in which TAZ was knocked down (si TAZ) and C2C12 cells in which TAZ was not knocked down (si Cont), after being cultured under differentiation condition for 72 hours, was analyzed by immunoblotting. As a result, expression of MHC decreased in the case with only myostatin, whereas it recovered in the case with myostatin and IBS008738 (see FIG. 8C).

Balb/c ByJ mice = assay: Suppression of dexamethasone-induced muscle atrophy; type: in vivo, mouse; conditions: 20 μL of 25 mg/mL stock intraperitoneally each day for a week; day 14
Procedure: (1) A 25 mg/mL dexamethasone stock solution in DMSO was prepared. Three Balb/c ByJ mice (6 week, female) were intraperitoneally injected with 20 μL of the dexamethasone stock solution, each day for a week. As a control group, three other individuals were injected with 20 μL of DMSO. On day 9, 11 and 13, each group of the mice was injected with a solution prepared by dissolving 0.3 μL of 10 mM IBS008738 stock solution in 100 μL PBS, on one hindlimb muscle, and with 100 μL PBS on the other hindlimb muscle. The mice were sacrificed at day 14, and the muscle tissues were fixed and stained with hematoxylin and eosin (see FIG. 8D). It was observed that the muscle fibers of the mice administered with dexamethasone were shrinked.
(2) The cross section of the muscle fibers of the individual intraperitoneally injected with dexamethasone was stained with an anti-laminin antibody and observed. […] The cross-section area of muscle fibers (500 per individual) of the three mice was measured. As a result, the area of the individual injected with IBS008738 was greater than the area of the individual injected with DMSO (see FIG. 9F). The cross-section area of muscle fibers was analyzed with Image J software.

muscle fibers of the mice administered with dexamethasone (Balb/c ByJ mice) | Molecule | muscle formation of the C2C12 cells (C2C12 cells; TAZ not knocked down, 1 μL myostatin stock (100 μg/mL) and/or 1 μL 10 mM IBS008738 stock in 1 mL medium) | expression of MHC (C2C12 cells; immunoblotting) | Fusion index (C2C12 cells; siCont C2C12 cells) | Fusion index (C2C12 cells; siTAZ C2C12 cells)
 | myostatin [MSTN] | inhibited | decreased | 0.06 and 0.05 | 0.02 and 0.03 and 0.04
shrinked | C[C@@H]1C[C@H]2[C@@H]3CCC4=CC(=O)C=C[C@]4(C)[C@@]3(F)[C@@H](O)C[C@]2(C)[C@@]1(O)C(=O)CO [dexamethasone, reference compound] |  |  |  | 
